{"source": "patent US8431523B2", "about": "“Oligomeric biosurfactants in dermatocosmetic compositions” (priority 2006, dated 2013)", "test_system": "fibroblast proliferation", "experiment": "Cyquant Cell Proliferation Assay; as to increase fibroblast proliferation (qualitative): test concentration or dose not given here", "type": "cell-based", "procedure": "For purposes of the present invention, proliferation is assessed using the Cyquant® Cell Proliferation Assay from Molecular Probes. This assay measures increased production of cellular nucleic acids that, in turn, results in increased binding of fluorescent dye.", "note": "Non-standard residues stand in square brackets, D forms with d. Residues, ends and D or L forms follow the SMILES beside them. *: point of attachment. Palmitoyl = CCCCCCCCCCCCCCCC(=O)*; Myristoyl = CCCCCCCCCCCCCC(=O)*", "data": [{"compound": "Myr-KGL-[K]^D-amide (Myristoyl-KGL[dK]-NH2; SMILES CCCCCCCCCCCCCC(=O)N[C@@H](CCCCN)C(=O)NCC(=O)N[C@@H](CC(C)C)C(=O)N[C@H](CCCCN)C(N)=O) [P405]", "values": [{"measurement": "increase fibroblast proliferation (qualitative)", "value": "increase fibroblast proliferation"}]}, {"compound": "Pal-VGVAPG-amide (Palmitoyl-VGVAPG-NH2; SMILES CCCCCCCCCCCCCCCC(=O)N[C@H](C(=O)NCC(=O)N[C@H](C(=O)N[C@@H](C)C(=O)N1CCC[C@H]1C(=O)NCC(N)=O)C(C)C)C(C)C) [P247]", "values": [{"measurement": "increase fibroblast proliferation", "value": "at least 30%"}]}, {"compound": "CCCCCCCCCCCCCC(=O)N[C@@H](CCCCN)C(=O)N[C@@H](CC(C)C)C(=O)N[C@@H](C)C(=O)N[C@@H](CCCCN)C(=O)N[C@H](CCCCN)C(N)=O", "note": "[P414, Myr-KLAK-[K]^D-amide] (Myristoyl-KLAK[dK]-NH2)", "values": [{"measurement": "increase fibroblast proliferation (qualitative)", "value": "increase fibroblast proliferation"}]}, {"compound": "CCCCCCCCCCCCCC(=O)N[C@@H](CC(=O)O)C(=O)N[C@@H](C)C(=O)N[C@@H](CC(=O)O)C(=O)O", "note": "[P388, Myr-DAD-acid] (Myristoyl-Asp-Ala-Asp-OH)", "values": [{"measurement": "increase fibroblast proliferation (qualitative)", "value": "increase fibroblast proliferation"}]}, {"compound": "CCCCCCCCCCCCCC(=O)NCC(=O)N[C@@H](CCCNC(=N)N)C(=O)N[C@@H](CCCCN)C(=O)NCC(=O)N[C@@H](CC(=O)O)C(=O)O", "note": "[P266, Myr-GRKGD-acid] (Myristoyl-GRKGD-OH)", "values": [{"measurement": "increase fibroblast proliferation (qualitative)", "value": "increase fibroblast proliferation"}]}, {"compound": "CCCCCCCCCCCCCC(=O)N[C@@H](CCCCN)C(=O)N[C@@H](CC(C)C)C(=O)N[C@@H](C)C(=O)N[C@@H](CCCCN)C(=O)N[C@@H](CCCCN)C(=O)N[C@@H](C)C(=O)O", "note": "[P252, Myr-KLAKKA-acid] (Myristoyl-KLAKKA-OH)", "values": [{"measurement": "increase fibroblast proliferation (qualitative)", "value": "increase fibroblast proliferation"}]}, {"compound": "CCCCCCCCCCCCCC(=O)NCC(=O)N[C@@H](CCCNC(=N)N)C(=O)NCC(=O)N[C@@H](CC(=O)O)C(=O)N[C@@H](CO)C(N)=O", "note": "[P382, Myr-GRGDS-amide]", "values": [{"measurement": "increase fibroblast proliferation (qualitative)", "value": "increase fibroblast proliferation"}]}, {"compound": "CCCCCCCCCCCCCC(=O)N[C@H](C(=O)N[C@@H](CCCCN)C(=O)N[C@H](C(=O)N[C@H](C(=O)N[C@@H](CCCCN)C(N)=O)[C@@H](C)O)[C@@H](C)O)[C@@H](C)O", "note": "[P228, Myr-TKTTK-amide] (Myristoyl-TKTTK-NH2)", "values": [{"measurement": "increase fibroblast proliferation (qualitative)", "value": "increase fibroblast proliferation"}]}, {"compound": "Dod-KKALK-amide [P328]", "values": [{"measurement": "increase fibroblast proliferation (qualitative)", "value": "increase fibroblast proliferation"}]}, {"compound": "CCCCCCCCCCCCCC(=O)N[C@@H](CC(C)C)C(=O)N[C@@H](CCCCN)C(=O)N[C@@H](CCCCN)C(=O)N[C@@H](C)C(=O)N[C@@H](CC(C)C)C(=O)N[C@H](CCCCN)C(=O)O", "note": "[P406, Myr-LKKAL-[K]^D-acid] (Myristoyl-LKKAL[dK]-OH)", "values": [{"measurement": "increase fibroblast proliferation (qualitative)", "value": "increase fibroblast proliferation"}]}, {"compound": "CCCCCCCCCCCCCC(=O)N[C@@H](CCCCN)C(=O)N[C@@H](CCCCN)C(=O)NCC(=O)N[C@@H](CCC(=O)O)C(=O)N[C@@H](CCSC)C(=O)O", "note": "[P293, Myr-KKGEM-acid] (Myristoyl-KKGEM-OH)", "values": [{"measurement": "increase fibroblast proliferation (qualitative)", "value": "increase fibroblast proliferation"}]}, {"compound": "CCCCCCCCCCCCCC(=O)N[C@@H](CC(=O)O)C(=O)N[C@@H](CC(=O)O)C(=O)N[C@@H](C)C(=O)N[C@@H](CC(=O)O)C(=O)O", "note": "[P389, Myr-DDAD-acid] (Myristoyl-DDAD-OH)", "values": [{"measurement": "increase fibroblast proliferation (qualitative)", "value": "increase fibroblast proliferation"}]}, {"compound": "CCCCCCCCCCCCCC(=O)N[C@H](C(=O)N[C@H](C(=O)N[C@H](C(=O)N[C@H](C(=O)N[C@H](C(=O)N[C@@H](CCCCN)C(N)=O)[C@@H](C)CC)[C@@H](C)CC)[C@@H](C)CC)[C@@H](C)CC)[C@@H](C)CC", "note": "[P417, Myr-IIIIIK-amide] (Myristoyl-IIIIIK-NH2)", "values": [{"measurement": "increase fibroblast proliferation (qualitative)", "value": "increase fibroblast proliferation"}]}, {"compound": "Myr-K-[K]^D-A-[L]^D-amide [P361]", "values": [{"measurement": "increase fibroblast proliferation (qualitative)", "value": "increase fibroblast proliferation"}]}]}
